# Data from patent publication US20200338028A1, “BENZENESULFONAMIDE DERIVATIVES AND METHOD FOR MODULATING LIPID RAFT” (Gongwin Biopharm Co., Ltd., priority 2017, published 2020).
# “Also recorded” adds a separate entry of the source.
# How the values were obtained:
# [1] = system: PC-3-derived cancer xenografts; test: in vivo anti-tumor xenograft model; design: species or system nude mice
# Method: In vivo anti-tumor study was performed as follows. PC-3-derived cancer xenografts in nude mice were used as an in vivo model. The nude mice were subcutaneously injected with PC-3 cells (10^7 cell/mouse). The tumors were measured every day. When the tumors reached a volume of 100 mm^3, the mice were divided into two groups (n=8-10), and compound treatment was initiated. p-TSA was dissolved in 15% 1-methyl-2-pyrrolidone (NMP). Vehicle (15% NMP) or p-TSA was given intraperitoneally every other day. The length (1) and width (w) of the tumor were measured, and tumor volume was calculated as lw^2/2. The protocols of the in vivo study were approved by the Animal Care and Use Committee at National Taiwan University. All animal procedures and protocols were approved by AAALAC-accredited facility. Data were presented as mean±standard error of the mean (SEM) for the indicated number of separate experiments. The statistical analysis was performed using one way analysis of variance (ANOVA) for multiple sample sets. Single comparisons of appropriate groups were done with Student's t-test. P-values less than 0.05 are statistically considered significant.
# The tumor xenograft in nude mice models after subcutaneously inoculated PC-3 cells was used to conduct in vivo efficacy evaluation of p-TSA. The operator was fully blinded to the experimental treatment. The initial intraperitoneal injection of 75 mg/kg p-TSA was given when the tumor reached a size of 100 mm^3 (p-TSA group 121±40 mm^3 v.s. control group 101±48 mm^3). First, the tumor growth inhibition treatment/control (T/C) ratio was used to quantify the treatment effect of p-TSA in the mouse xenograft model.
# PC-3 cells = test: lipid raft isolation (sucrose gradient) and Western blot of raft-associated kinases; assay type: cell-based, human; conditions: PC-3, 6 mM p-TSA, 2 h
# Description: (§1) Lipid rafts are plasma membranes of cells containing glycosphingolipids and a number of receptors arranged in specific glycolipoprotein microdomains which serve as organizing centers to gather signaling molecules, membrane fluid and protein trafficking for a variety of cellular processes. […] To examine the effect of lipid raft on p-TSA action, lipid rafts were isolated from whole cells by sucrose gradient fractionation with subsequent analysis of several serine/threonine kinases localization in raft fractions by immunoblotting. The detailed method for lipid raft isolation was performed as follows. Lipid rafts were isolated using lysis conditions and centrifugation on discontinuous sucrose gradients. Briefly, after the treatment of cells with or without p-TSA, the cells were washed with ice-cold PBS and lysed for 30 min on ice with 1% Triton X-100 in TNEV buffer (10 mM Tris-HCl, pH 7.5, 150 mM NaCl, 5 mM EDTA, 1 mM Na3VO4 and 1 mM PMSF). Cells were homogenized with 15 strokes with a Biovision tissue homogenizer. After centrifuging at 200 g for 8 min, the nuclei and cellular debris were pelleted and 400 μl supernatant was mixed with 400 μl 85% (w/v) sucrose in TNEV buffer, and then transferred to the bottom of a Beckman 13×51 mm centrifuge tube. The diluted lysate was overlaid with 2.4 ml 35% (w/v) sucrose in TNEV buffer and finally 1.4 ml 5% (w/v) sucrose in TNEV buffer. The samples were centrifuged in an SW55 rotor at 200,000 g for 18 h at 4° C. in a Beckman Optima L100K ultracentrifuge (Beckman Instruments, Palo Alto, Calif., United States). Then, fractions in each volume of 350 μl were collected from the top gradient. 15 μl of each fraction was subjected to Western blot analysis to determine the location of target proteins in the discontinuous sucrose gradient.
# DU-145 cells = test: as above; assay type: cell-based, human; conditions: DU-145, 6 mM p-TSA, 2 h
# Description: as §1
# normal prostate cells = test: SRB assay, anti-proliferative effect; assay type: cell-based, human; conditions: primary prostate cells, compared with CRPC cells, FIG. 1A
# Method: Two castration-resistant prostate cancer (CRPC) cell lines of PC-3 and DU-145 were cultured in RPMI 1640 medium with 5% FBS (v/v), penicillin (100 units/ml) and streptomycin (100 μg/ml). Cultures were maintained in a 37° C. incubator with 5% CO2, and adherent cultures were passaged using 0.05% trypsin-EDTA when they reached about 80% confluence. Prostate cells were from human tissue samples which were obtained following informed consent of the donors and after full review by the Ethics Review Committee at National Taiwan University Hospital. The prostate specimens were from males by transurethral resection of the prostate. All patients with prostatism histories were diagnosed to have benign prostate hyperplasia by rectal digital examination, transrectal sonography of prostate and urodynamic studies. […] SRB assay is an accurate and reproducible assay based upon quantitative SRB staining of cellular proteins, and the process for SRB assay was performed as follows. […] The absorbance of SRB was measured at a wavelength of 515 nm at the time of p-TSA addition (hereinafter referred to as time zero, TZ), and after additional incubation of DMSO (hereinafter referred to as control growth, CTL) or p-TSA (hereinafter referred to as Tx). The percentage of cell growth inhibition was calculated by the formula of [1−(Tx−TZ)/(CTL−TZ)]×100%. […]
compound,measurement,setting,value
"Cc1ccc(S(N)(=O)=O)cc1 [p-TSA, para-toluenesulfonamide]",median tumor size,[1]; 75 mg/kg intraperitoneally,403 mm^3
same,tumor growth inhibition treatment/control (T/C) ratio,"[1]; 75 mg/kg intraperitoneally every other day, end of treatment, FIG. 7A",0.44
same,tumor growth rate,"[1]; 75 mg/kg intraperitoneally, FIG. 7B",16.8 mm^3/day
same,loss of body weight versus control group,"[1]; 75 mg/kg intraperitoneally, FIG. 7C",no significant between-group difference
same,inhibition by median tumor size,"[1]; 75 mg/kg intraperitoneally, versus 765 mm^3 in the control group",47%
same,inhibition of tumor growth rate,"[1]; 75 mg/kg intraperitoneally, versus control group 37.8 mm^3/day",56%
same,day on which the group reached a 20% loss of body weight,"[1]; 75 mg/kg intraperitoneally, control group 12th day",22 days
same,p-Akt expression in tumors,"[1]; six randomly selected tumors, FIG. 7D, listed as PTS",significant inhibitory effect; also recorded: significantly inhibited
same,"expressions of raft-associated total and phosphorylated kinases (Akt, mTOR, p70S6K)",PC-3 cells,decreased expressions
same,raft-associated phosphorylated p70S6K expression,PC-3 cells,completely abolished
same,"expressions of raft-associated total and phosphorylated kinases (Akt, mTOR, p70S6K)",DU-145 cells,decreased expressions
same,raft-associated phosphorylated p70S6K expression,DU-145 cells,completely abolished
same,anti-proliferative activity in normal prostate cells,normal prostate cells,lower anti-proliferative activity
